“And” between values parts separate entries of the source, which are not always exact repeats. Equal values may be shown once. Read-outs that look alike come from different tables or passages of the source.
What was measured:
[1] = Determination of compound in plasma and brain by LC-MS/MS; type: in vivo; settings: TMHT mice of experiment 5.5, 30 mg/kg orally for 8 weeks; for concentration in cortex: cortex at sacrifice; for concentration in plasma: plasma at sacrifice; for concentration in rest of brain: rest of brain at sacrifice; for concentration at 8 weeks: TMHT, mouse, oral, 30 mg/kg
Protocol: Plasma and brain samples derived from the experiments in 5.5 were pooled from single time point and were analysed for the presence and concentration of Comparative Compound 324 and Compound A by LC-MS/MS after protein precipitation over the calibration range of 0.5-10,000 ng/mL. Chrysin (Sigma®), control mouse plasma and brain (obtained from a commercial supplier) were used as internal standards.
All instrument control, data collection, peak area integration and storage were performed using Thermo Finnigan TSQ Quantum Ultra Mass Spectrometer in conjunction with LCQuan software (v.2.5.6). The mass spectrometer response (peak area ratio of analyte to internal standard) of each calibration standard was calculated by Watson LIMS (v. 7.2) and plotted against the nominal concentration. A weighted least square quadratic regression analysis was used to calculate an equation of the calibration line using one of the standard fits in Watson LIMS. Concentration of Comparative Compound 324 and Compound A in the plasma and brain samples were back calculated from the calibration lines to 3 significant figures. All results reported are from samples that passed the following criteria:
[formula] • At least 7 calibration standards within ±20% RE of their target concentrations. • At least 66% of QC samples within ±20% RE of their respective target values. Within at least one acceptable at each level when n=3 and two when n=6.
The analytical method was as summarised below in Table 14:
In total 32 samples were analysed. Quality control (QC) samples at concentration of 10, 100 and 1000 ng/mL were freshly prepared on the day of the analysis.

[2] = target: ADCK4 (Homo sapiens, UniProt Q96D53); test: KINOMEscan binding assay; settings: read-out: % Ctrl @ 10000 nM
[3] = target: BRAF (V600E) (Homo sapiens, UniProt P15056, V600E); test: KINOMEscan binding assay; settings: read-out: % Ctrl @ 10000 nM
[4] = target: CAMK2D (Homo sapiens, UniProt Q13557); test: KINOMEscan binding assay; settings: read-out: % Ctrl @ 10000 nM
[5] = target: CAMK4 (Homo sapiens, UniProt Q16566); test: KINOMEscan binding assay; settings: read-out: % Ctrl @ 10000 nM
[6] = target: CDK11 (Homo sapiens, UniProt Q9BWU1); test: KINOMEscan binding assay; settings: read-out: % Ctrl @ 10000 nM
[7] = target: CSF1R (Homo sapiens, UniProt P07333); test: KINOMEscan binding assay; settings: read-out: % Ctrl @ 10000 nM
[8] = target: CSNK1E (Homo sapiens, UniProt P49674); test: KINOMEscan binding assay; settings: read-out: % Ctrl @ 10000 nM
[9] = target: DMPK2 (Homo sapiens, UniProt Q6DT37); test: KINOMEscan binding assay; settings: read-out: % Ctrl @ 10000 nM
[10] = target: DYRK1B (Homo sapiens, UniProt Q9Y463); test: KINOMEscan binding assay; settings: read-out: % Ctrl @ 10000 nM
[11] = target: ERBB2 (Homo sapiens, UniProt P04626); test: KINOMEscan binding assay; settings: read-out: % Ctrl @ 10000 nM
[12] = target: FYN (Homo sapiens, UniProt P06241); test: KINOMEscan binding assay; settings: read-out: % Ctrl @ 10000 nM
[13] = target: HASPIN (Homo sapiens, UniProt Q8TF76); test: KINOMEscan binding assay; settings: read-out: % Ctrl @ 10000 nM
[14] = target: HCK (Homo sapiens, UniProt P08631); test: KINOMEscan binding assay; settings: read-out: % Ctrl @ 10000 nM
[15] = target: JAK2 (JH1domain-catalytic) (Homo sapiens, UniProt O60674); test: KINOMEscan binding assay; settings: read-out: % Ctrl @ 10000 nM
[16] = target: LATS2 (Homo sapiens, UniProt Q9NRM7); test: KINOMEscan binding assay; settings: read-out: % Ctrl @ 10000 nM
[17] = target: T1, LTK (Homo sapiens, UniProt P29376); test: KINOMEscan binding assay; settings: read-out: % Ctrl @ 10000 nM
T1 construct: T7 phage fusion (most assays) or DNA label after HEK293 expression; purchased DiscoveRx (KINOMEscan, LeadHunter Discovery services); host or cells: T7 phage in E. coli (BL21-derived) or HEK293

[18] = target: MEK3 (Homo sapiens, UniProt P46734); test: KINOMEscan binding assay; settings: read-out: % Ctrl @ 10000 nM
[19] = target: MRCKB (Homo sapiens, UniProt Q9Y5S2); test: KINOMEscan binding assay; settings: read-out: % Ctrl @ 10000 nM
[20] = target: MYLK2 (Homo sapiens, UniProt Q9H1R3); test: KINOMEscan binding assay; settings: read-out: % Ctrl @ 10000 nM
[21] = target: NDR1 (Homo sapiens, UniProt Q15208); test: KINOMEscan binding assay; settings: read-out: % Ctrl @ 10000 nM
[22] = target: NEK5 (Homo sapiens, UniProt Q6P3R8); test: KINOMEscan binding assay; settings: read-out: % Ctrl @ 10000 nM
[23] = target: PIK3C2G (Homo sapiens, UniProt O75747); test: KINOMEscan binding assay; settings: read-out: % Ctrl @ 10000 nM
[24] = target: PIK3CA (H1047L) (Homo sapiens, UniProt P42336, H1047L); test: KINOMEscan binding assay; settings: read-out: % Ctrl @ 10000 nM
[25] = target: PLK3 (Homo sapiens, UniProt Q9H4B4); test: KINOMEscan binding assay; settings: read-out: % Ctrl @ 10000 nM
[26] = target: RIOK3 (Homo sapiens, UniProt O14730); test: KINOMEscan binding assay; settings: read-out: % Ctrl @ 10000 nM
[27] = target: RPS6KA4 Kin.Dom.1-N-terminal (Homo sapiens, UniProt O75676); test: KINOMEscan binding assay; settings: read-out: % Ctrl @ 10000 nM
[28] = target: RPS6KA5 Kin.Dom.2-C-terminal (Homo sapiens, UniProt O75582); test: KINOMEscan binding assay; settings: read-out: % Ctrl @ 10000 nM
[29] = target: SRMS (Homo sapiens, UniProt Q9H3Y6); test: KINOMEscan binding assay; settings: read-out: % Ctrl @ 10000 nM
[30] = target: STK16 (Homo sapiens, UniProt O75716); test: KINOMEscan binding assay; settings: read-out: % Ctrl @ 10000 nM
[31] = target: TAK1 (Homo sapiens, UniProt O43318); test: KINOMEscan binding assay; settings: read-out: % Ctrl @ 10000 nM
[32] = target: T2, ZAP70 (Homo sapiens, UniProt P43403); test: KINOMEscan binding assay; settings: read-out: % Ctrl @ 10000 nM
T2 construct: purchased DiscoveRx (KINOMEscan, LeadHunter Discovery services)

[33] = hippocampus at sacrifice, LC-MS/MS, one value per mouse

Chain of PIK3C2G (O75747 whole entry): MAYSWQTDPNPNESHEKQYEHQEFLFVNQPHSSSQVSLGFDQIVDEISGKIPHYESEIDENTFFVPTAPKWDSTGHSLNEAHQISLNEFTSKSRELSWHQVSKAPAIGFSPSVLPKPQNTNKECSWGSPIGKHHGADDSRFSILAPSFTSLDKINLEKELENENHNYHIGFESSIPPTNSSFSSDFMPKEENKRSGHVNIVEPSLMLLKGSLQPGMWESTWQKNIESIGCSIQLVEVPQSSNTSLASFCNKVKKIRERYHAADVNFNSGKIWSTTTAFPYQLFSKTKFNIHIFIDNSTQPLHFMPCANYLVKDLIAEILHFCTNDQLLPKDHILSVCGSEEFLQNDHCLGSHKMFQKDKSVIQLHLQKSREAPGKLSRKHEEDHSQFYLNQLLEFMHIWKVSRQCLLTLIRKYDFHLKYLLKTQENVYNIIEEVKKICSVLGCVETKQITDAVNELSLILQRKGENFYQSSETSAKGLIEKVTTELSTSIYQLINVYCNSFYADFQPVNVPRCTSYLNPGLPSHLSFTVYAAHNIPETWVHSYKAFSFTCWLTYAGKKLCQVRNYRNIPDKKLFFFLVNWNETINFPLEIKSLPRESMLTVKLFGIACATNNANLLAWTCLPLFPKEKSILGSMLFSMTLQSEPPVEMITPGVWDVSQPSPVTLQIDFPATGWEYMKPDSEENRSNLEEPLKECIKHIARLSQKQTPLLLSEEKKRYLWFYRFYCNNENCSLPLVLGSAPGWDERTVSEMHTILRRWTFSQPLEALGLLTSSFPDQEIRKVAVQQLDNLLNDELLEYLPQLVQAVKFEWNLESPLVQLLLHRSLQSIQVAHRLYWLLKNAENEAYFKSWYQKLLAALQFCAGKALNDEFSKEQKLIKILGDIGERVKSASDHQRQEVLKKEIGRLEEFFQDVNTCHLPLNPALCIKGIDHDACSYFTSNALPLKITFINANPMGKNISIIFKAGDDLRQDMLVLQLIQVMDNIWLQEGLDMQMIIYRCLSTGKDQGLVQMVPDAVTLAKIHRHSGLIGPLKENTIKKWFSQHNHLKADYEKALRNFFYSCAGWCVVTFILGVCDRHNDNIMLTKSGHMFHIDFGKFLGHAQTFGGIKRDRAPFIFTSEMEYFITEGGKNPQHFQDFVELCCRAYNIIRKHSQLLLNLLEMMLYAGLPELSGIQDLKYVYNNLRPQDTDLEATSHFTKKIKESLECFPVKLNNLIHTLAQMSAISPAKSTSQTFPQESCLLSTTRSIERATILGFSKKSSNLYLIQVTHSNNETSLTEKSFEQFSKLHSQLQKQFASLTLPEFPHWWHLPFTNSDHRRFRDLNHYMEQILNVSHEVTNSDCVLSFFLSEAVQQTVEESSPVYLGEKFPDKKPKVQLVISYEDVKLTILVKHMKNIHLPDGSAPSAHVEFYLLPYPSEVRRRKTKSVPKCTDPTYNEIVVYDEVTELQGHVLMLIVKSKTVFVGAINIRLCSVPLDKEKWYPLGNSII
Chain of LATS2 (Q9NRM7 whole entry): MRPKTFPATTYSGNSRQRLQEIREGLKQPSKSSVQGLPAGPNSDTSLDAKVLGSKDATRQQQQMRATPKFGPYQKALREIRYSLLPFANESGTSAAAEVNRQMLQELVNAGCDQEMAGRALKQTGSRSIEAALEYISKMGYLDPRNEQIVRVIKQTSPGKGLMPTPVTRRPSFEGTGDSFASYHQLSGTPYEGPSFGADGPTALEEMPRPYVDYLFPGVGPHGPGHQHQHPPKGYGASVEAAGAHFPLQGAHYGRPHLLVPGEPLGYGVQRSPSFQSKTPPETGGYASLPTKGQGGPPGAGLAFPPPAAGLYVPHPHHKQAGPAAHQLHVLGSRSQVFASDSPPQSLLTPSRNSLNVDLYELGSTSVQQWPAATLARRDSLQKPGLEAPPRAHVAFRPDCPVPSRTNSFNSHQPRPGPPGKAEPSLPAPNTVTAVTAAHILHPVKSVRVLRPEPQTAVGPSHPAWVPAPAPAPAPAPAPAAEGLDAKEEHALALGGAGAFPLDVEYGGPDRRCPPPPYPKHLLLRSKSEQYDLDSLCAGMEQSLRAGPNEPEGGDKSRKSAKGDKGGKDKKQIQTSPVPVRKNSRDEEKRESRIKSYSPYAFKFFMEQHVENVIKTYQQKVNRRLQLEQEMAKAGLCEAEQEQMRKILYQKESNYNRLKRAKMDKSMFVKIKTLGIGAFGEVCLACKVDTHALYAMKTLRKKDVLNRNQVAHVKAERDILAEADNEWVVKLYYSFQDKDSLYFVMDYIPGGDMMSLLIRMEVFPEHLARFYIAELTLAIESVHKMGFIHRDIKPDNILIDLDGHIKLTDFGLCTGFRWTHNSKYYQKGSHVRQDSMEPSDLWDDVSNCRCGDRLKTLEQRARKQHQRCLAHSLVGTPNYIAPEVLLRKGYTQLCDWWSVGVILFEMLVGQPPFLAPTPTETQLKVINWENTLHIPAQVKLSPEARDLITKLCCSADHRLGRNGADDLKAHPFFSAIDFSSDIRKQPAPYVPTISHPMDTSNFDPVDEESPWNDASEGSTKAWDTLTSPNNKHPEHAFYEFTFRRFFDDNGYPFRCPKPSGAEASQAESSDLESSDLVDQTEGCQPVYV
Chain of PLK3 (Q9H4B4 whole entry): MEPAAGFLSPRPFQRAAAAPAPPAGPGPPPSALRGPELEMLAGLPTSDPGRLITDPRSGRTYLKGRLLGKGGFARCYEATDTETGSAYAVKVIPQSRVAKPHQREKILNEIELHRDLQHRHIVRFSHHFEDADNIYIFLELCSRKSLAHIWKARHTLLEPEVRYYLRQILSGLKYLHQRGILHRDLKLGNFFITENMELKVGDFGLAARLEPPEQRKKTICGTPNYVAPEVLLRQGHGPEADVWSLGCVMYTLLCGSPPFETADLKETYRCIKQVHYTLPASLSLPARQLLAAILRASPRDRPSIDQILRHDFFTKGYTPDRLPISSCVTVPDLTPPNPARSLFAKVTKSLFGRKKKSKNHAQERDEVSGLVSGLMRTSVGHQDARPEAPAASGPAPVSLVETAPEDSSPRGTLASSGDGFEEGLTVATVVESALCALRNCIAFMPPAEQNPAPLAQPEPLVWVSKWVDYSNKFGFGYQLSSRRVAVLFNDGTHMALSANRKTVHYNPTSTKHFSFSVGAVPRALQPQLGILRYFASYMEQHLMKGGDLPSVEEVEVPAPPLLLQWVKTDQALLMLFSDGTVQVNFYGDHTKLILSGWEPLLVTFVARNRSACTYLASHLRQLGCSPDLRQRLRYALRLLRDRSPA
Chain of NDR1 (Q15208 whole entry): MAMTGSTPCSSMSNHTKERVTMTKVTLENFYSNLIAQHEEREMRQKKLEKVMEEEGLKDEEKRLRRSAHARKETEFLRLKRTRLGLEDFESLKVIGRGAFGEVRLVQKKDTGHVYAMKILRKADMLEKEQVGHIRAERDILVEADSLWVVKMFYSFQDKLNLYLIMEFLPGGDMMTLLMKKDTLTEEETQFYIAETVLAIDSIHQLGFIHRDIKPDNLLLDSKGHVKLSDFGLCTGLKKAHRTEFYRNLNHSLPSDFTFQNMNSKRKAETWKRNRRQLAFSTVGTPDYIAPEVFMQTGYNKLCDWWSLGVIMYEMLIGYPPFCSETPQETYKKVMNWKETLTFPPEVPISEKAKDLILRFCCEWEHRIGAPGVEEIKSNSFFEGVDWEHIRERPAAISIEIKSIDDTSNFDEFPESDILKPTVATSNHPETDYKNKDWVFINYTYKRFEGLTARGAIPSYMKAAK
T1 sequence (P29376 17-864): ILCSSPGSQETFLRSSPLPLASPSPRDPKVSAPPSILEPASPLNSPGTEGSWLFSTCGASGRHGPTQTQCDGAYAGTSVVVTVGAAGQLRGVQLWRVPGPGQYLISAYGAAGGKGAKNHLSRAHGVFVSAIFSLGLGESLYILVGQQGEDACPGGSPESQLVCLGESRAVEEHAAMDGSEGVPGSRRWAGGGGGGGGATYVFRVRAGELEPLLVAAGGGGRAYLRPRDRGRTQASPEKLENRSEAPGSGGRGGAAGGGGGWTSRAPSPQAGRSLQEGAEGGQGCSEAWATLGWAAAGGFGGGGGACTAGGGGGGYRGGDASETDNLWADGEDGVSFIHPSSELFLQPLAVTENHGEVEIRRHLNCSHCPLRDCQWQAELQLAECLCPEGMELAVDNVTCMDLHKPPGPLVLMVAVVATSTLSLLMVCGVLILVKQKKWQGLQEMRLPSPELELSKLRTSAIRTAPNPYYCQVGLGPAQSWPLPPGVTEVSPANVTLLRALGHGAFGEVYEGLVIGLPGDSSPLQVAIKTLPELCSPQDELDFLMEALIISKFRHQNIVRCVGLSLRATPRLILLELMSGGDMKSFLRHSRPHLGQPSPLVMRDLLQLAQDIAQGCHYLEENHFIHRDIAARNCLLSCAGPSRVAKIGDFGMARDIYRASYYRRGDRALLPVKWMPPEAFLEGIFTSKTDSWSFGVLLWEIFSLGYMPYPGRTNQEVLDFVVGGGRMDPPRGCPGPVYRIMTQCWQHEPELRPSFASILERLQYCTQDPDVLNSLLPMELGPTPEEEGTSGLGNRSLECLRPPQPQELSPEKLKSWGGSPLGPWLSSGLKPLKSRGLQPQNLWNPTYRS
Chain of RIOK3 (O14730 whole entry): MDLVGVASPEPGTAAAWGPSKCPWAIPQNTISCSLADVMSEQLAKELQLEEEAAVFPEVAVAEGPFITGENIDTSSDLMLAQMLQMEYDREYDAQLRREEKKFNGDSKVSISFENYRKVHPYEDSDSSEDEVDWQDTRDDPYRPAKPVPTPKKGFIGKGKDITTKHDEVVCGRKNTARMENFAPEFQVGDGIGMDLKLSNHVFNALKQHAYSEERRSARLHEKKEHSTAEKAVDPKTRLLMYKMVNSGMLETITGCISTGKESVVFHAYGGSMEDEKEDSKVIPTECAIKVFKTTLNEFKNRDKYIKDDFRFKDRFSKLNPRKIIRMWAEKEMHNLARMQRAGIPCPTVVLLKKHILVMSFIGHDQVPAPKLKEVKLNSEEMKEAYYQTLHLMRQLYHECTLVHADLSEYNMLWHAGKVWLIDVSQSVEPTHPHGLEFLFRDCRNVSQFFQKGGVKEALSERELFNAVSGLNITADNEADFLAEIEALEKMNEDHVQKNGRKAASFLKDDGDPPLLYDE

Row | SMILES | concentration in cortex ([1]; LC-MS/MS, one value per mouse) | concentration in hippocampus [1, 33] | concentration in plasma ([1]; LC-MS/MS, one value per mouse) | concentration in rest of brain ([1]; LC-MS/MS, one value per mouse) | remaining binding at 10 µM [2] | remaining binding at 10 µM [3] | remaining binding at 10 µM [4] | remaining binding at 10 µM [5] | remaining binding at 10 µM [6] | remaining binding at 10 µM [7] | remaining binding at 10 µM [8] | remaining binding at 10 µM [9] | remaining binding at 10 µM [10] | remaining binding at 10 µM [11] | remaining binding at 10 µM [12] | remaining binding at 10 µM [13] | remaining binding at 10 µM [14] | remaining binding at 10 µM [15] | remaining binding at 10 µM [16] | remaining binding at 10 µM [17] | other results
1 | Nc1ncc(-c2nc3ccccc3o2)c(-c2ccncc2)n1 [Comparative Compound 324, 5-(1,3-benzoxazol-2-yl)-4-(pyridine-4-yl)pyrimidin-2-amine] | 14.3 ng/mL and 108 ng/mL and 1.98 ng/mL and 10.5 ng/mL and 10.7 ng/mL and 0.536 ng/mL and 15.3 ng/mL and 6.41 ng/mL | 11.9 ng/mL and 87.0 ng/mL and BLQ (2×) and 12.6 ng/mL and 11.5 ng/mL and 15.1 ng/mL and 6.12 ng/mL | 295 ng/mL and 1450 ng/mL and 34.2 ng/mL and 230 ng/mL and 225 ng/mL and 10.5 ng/mL and 287 ng/mL and 138 ng/mL | 16.2 ng/mL and 122 ng/mL and 9.97 ng/mL and 9.75 ng/mL and 10.8 ng/mL and 1.12 ng/mL and 16.0 ng/mL and 7.09 ng/mL | 100% | 59% | 99% | 89% | 100% | 74% | 1.4% | 82% | 97% | 99% | 60% | 70% | 100% | 98% | 82% | 74% | remaining binding at 10 µM [18]: 80%; remaining binding at 10 µM [19]: 100%; remaining binding at 10 µM [20]: 100%; remaining binding at 10 µM [21]: 73%; remaining binding at 10 µM [22]: 100%; remaining binding at 10 µM [23]: 99%; remaining binding at 10 µM [24]: 100%; remaining binding at 10 µM [25]: 99%; remaining binding at 10 µM [26]: 57%; remaining binding at 10 µM [27]: 100%; remaining binding at 10 µM [28]: 96%; remaining binding at 10 µM [29]: 100%; remaining binding at 10 µM [30]: 89%; remaining binding at 10 µM [31]: 81%; remaining binding at 10 µM [32]: 78%
2 | CNc1c(C(N)=O)c2ccccn2c1C(=O)c1ccc(F)cc1 [Compound A, 2-methyl-amino-3-[(4-fluorophenyl)carbonyl]indolizine-1-carboxamide] | BLQ (2×) and 12.6 ng/mL and 9.67 ng/mL and 14.9 ng/mL and 8.92 ng/mL and 2.51 ng/mL and 17.7 ng/mL | BLQ (3×) and 8.23 ng/mL and 12.8 ng/mL and 9.33 ng/mL and 10.3 ng/mL | 12.6 ng/mL and 207 ng/mL and 203 ng/mL and 274 ng/mL and 188 ng/mL and 16.9 ng/mL and 319 ng/mL and 25.6 ng/mL | BLQ (2×) and 12.7 ng/mL and 10.5 ng/mL and 14.1 ng/mL and 12.9 ng/mL and 19.0 ng/mL and 2.66 ng/mL | 84% | 86% | 78% | 96% | 95% | 87% | 0.1% | 65% | 89% | 49% | 33% | 45% | 65% | 90% | 72% | 85% | concentration at 8 weeks ([1]; brain, SEM 1.05, read-out: concentration in the brain (Mean ±SEM)): ~11.1 ng/mL; concentration at 8 weeks ([1]; hippocampus, hippocampus at sacrifice, LC-MS/MS, one value per mouse, read-out: concentration in hippocampus): 10.5 ng/mL; remaining binding at 10 µM [18]: 60%; remaining binding at 10 µM [19]: 100%; remaining binding at 10 µM [20]: 100%; remaining binding at 10 µM [21]: 74%; remaining binding at 10 µM [22]: 91%; remaining binding at 10 µM [23]: 100%; remaining binding at 10 µM [24]: 100%; remaining binding at 10 µM [25]: 85%; remaining binding at 10 µM [26]: 72%; remaining binding at 10 µM [27]: 100%; remaining binding at 10 µM [28]: 88%; remaining binding at 10 µM [29]: 93%; remaining binding at 10 µM [30]: 81%; remaining binding at 10 µM [31]: 56%; remaining binding at 10 µM [32]: 93%

Reference: US10815230B2, “Casein kinase 1 delta inhibitor” (ELECTROPHORETICS LIMITED, priority 2015, dated 2020)
